Literature values as cited in patent US10092495B2, “Use of a composition comprising avocado perseose in the protection of epidermal stem cells” (LABORATOIRES EXPANSCIENCE, priority 2013, dated 2018).

Test system: Ehrlich ascites tumor cells
Conditions: perseitol associated with a potassium ion

Q: With `OCC(O)C(O)C(O)C(O)C(O)CO` (stereo not shown) [perseitol, Perseitol] as the molecule, how does the “incorporation of 3H-leucine” value read?
A: inhibit
